This experiment addresses T1, DNMT2 (Homo sapiens, UniProt O14717).
T1 construct: Recombinant human DNMT2 (full-length); His-tag; made in house; host or cells: E. coli
T1 sequence (O14717 1-391): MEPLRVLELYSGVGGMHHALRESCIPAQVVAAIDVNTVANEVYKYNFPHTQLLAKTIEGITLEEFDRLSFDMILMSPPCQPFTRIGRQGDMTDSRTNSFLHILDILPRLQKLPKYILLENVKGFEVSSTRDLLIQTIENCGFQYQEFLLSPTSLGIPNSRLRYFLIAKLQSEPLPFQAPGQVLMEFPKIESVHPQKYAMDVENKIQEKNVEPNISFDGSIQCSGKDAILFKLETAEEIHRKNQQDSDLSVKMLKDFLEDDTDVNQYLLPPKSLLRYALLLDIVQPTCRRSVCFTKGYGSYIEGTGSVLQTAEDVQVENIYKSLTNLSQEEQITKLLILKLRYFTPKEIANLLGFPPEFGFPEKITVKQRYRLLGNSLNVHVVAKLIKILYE
Briefly: MST displacement assay with fluorescent FTAD probe. The format is binding. On the set-up: Fnorm (MST screening): unit not given here. The conditions noted are these: ligand 100 μM, FTAD probe. How it is done: Screening for ligand binding and evaluation of dose-response affinity profiles was performed via microscale thermophoresis (MST) as described previously.[42] The measurements were conducted with a Nanotemper Technologies Monolith NT.115 device. All samples were measured in Monolith standard capillaries at 25 °C. The acquisition mode was set to “Nano-Blue” with an excitation power of 30% and a medium MST power, while the system was controlled using the software MO.Control (version 1.6.1) and for evaluation MO.Affinity Analysis (version 2.3) was used. The samples contained 2 μM DNMT2, 100 nM FTAD (5-FAM-triazolyl-adenosyl-Dab) probe, and 1.3% DMSO in MST buffer (50 mM HEPES, 150 mM NaCl, 1 mM dithiothreitol (DTT), 0.1% PEG-8000, 0.05% polysorbate-20, pH 7.4).[42] All compounds were employed at a final concentration of 100 μM for the initial ligand screening.

We go through 33 compounds from paper PMC12396291, “DNA-encoded library screening uncovers potent DNMT2 inhibitors targeting a cryptic allosteric binding site” (iScience, 2025).

SMILES strings stand for the structures.

For `CCc1ccc(C(=O)NCC2(C(=O)N[C@@H](CC(=O)NCC(=O)O)Cc3c[nH]c4ccccc34)CC2)cc1` [Compound 9], the “Fnorm (% displ.): FTAD displacement” value is given as 46% and the “Fnorm (MST screening)” value amounted to 907.7.
As for `Cc1ccc(C(=O)NCC2(C(=O)N[C@@H](CC(=O)NCC(N)=O)Cc3ccccc3)CC2)cc1` [Compound 11], the “Fnorm (% displ.): FTAD displacement” value is 24% and the “Fnorm (MST screening)” value worked out at 891.2.
The corresponding values for `CCCc1ccc(C(=O)NCC2(C(=O)N[C@@H](CC(=O)NCC(N)=O)Cc3ccccc3)CC2)cc1` [Compound 12] are 23% and 890.4.
Taken in the same sequence, the figures for `COc1ccc(C(=O)NCC2(C(=O)N[C@@H](CC(=O)NCC(N)=O)Cc3ccccc3)CC2)cc1` [Compound 13] were 32% and 897.7.
`CCc1ccc(C(=O)NCC2(C(=O)N[C@@H](CC(=O)NCC(N)=O)Cc3ccc(O)cc3)CC2)cc1` [Compound 15]: the “Fnorm (% displ.): FTAD displacement” value is reported as 5% and the “Fnorm (MST screening)” value is listed as 862.9.
The corresponding values for `CCc1ccc(C(=O)NCC2(C(=O)N[C@@H](CC(=O)NCC(N)=O)Cc3ccc(Br)cc3)CC2)cc1` [Compound 17] are 71% and 924.6.
In the case of `NC(=O)CNC(=O)C[C@@H](Cc1ccccc1)NC(=O)C1(CNC(=O)c2ccccc2)CC1` [Compound 18], the “Fnorm (% displ.): FTAD displacement” value amounted to 7% and the “Fnorm (MST screening)” value came to 868.2.
For the compound `C#Cc1ccc(C(=O)NCC2(C(=O)N[C@@H](CC(=O)NCC(N)=O)Cc3ccccc3)CC2)cc1` [Compound 19], the “Fnorm (% displ.): FTAD displacement” value is 8% and the “Fnorm (MST screening)” value came out at 871.4.
The corresponding values for `NC(=O)CNC(=O)C[C@@H](Cc1ccccc1)NC(=O)C1(CNC(=O)c2ccc(C3(C(F)(F)F)N=N3)cc2)CC1` [Compound 20] are 11% and 876.5.
The corresponding values for `CCc1ccc(C(=O)NCC2(C(=O)N[C@@H](CC(=O)NCC(N)=O)Cc3ccccc3)CC2)c(C)c1` [Compound 21] are 5% and 862.4.
Regarding `NC(=O)CNC(=O)C[C@@H](Cc1ccccc1)NC(=O)C1(CNC(=O)C2CCCCC2)CC1` [Compound 22], the “Fnorm (% displ.): FTAD displacement” value is reported as 5% and the “Fnorm (MST screening)” value amounted to 864.4.
Regarding `CC(=O)NCC1(C(=O)N[C@@H](CC(=O)NCC(N)=O)Cc2ccccc2)CC1` [Compound 23], the “Fnorm (% displ.): FTAD displacement” value is listed as 5% and the “Fnorm (MST screening)” value is 864.4.
The corresponding values for `CCc1ccc(C(=O)NC[C@H](N)C(=O)N[C@@H](CC(=O)NCC(N)=O)Cc2c[nH]c3ccccc23)cc1` [Compound 24] are 4% and 860.8.
As to `CCc1ccc(C(=O)NC[C@H](C)C(=O)N[C@@H](CC(=O)NCC(N)=O)Cc2c[nH]c3ccccc23)cc1` [Compound 25], the “Fnorm (% displ.): FTAD displacement” value was found to be 3% and the “Fnorm (MST screening)” value worked out at 855.5.
The corresponding values for `CCc1ccc(C(=O)NC2(C(=O)N[C@@H](CC(=O)NCC(N)=O)Cc3c[nH]c4ccccc34)CC2)cc1` [Compound 26] are 5% and 861.9.
The corresponding values for `CCc1ccc(C(=O)NCCC(=O)N[C@@H](CC(=O)NCC(N)=O)Cc2c[nH]c3ccccc23)cc1` [Compound 27] are 5% and 863.8.
With `CCc1ccc(C(=O)NCC2(C(=O)N[C@@H](CC(=O)NCC(N)=O)Cc3ccccc3)C[C@H]2C(F)(F)F)cc1` (stereo partly drawn) [Compound 28], the “Fnorm (% displ.): FTAD displacement” value was found to be 8% and the “Fnorm (MST screening)” value is reported as 871.9.
Taken in the same sequence, the figures for `CCc1ccc(C(=O)NCC2(C(=O)N[C@@H](CC(=O)NCC(N)=O)Cc3ccccc3)C[C@H]2S(C)(=O)=O)cc1` (stereo partly drawn) [Compound 29] were 9% and 872.3.
The corresponding values for `CCc1ccc(C(=O)NCC2(C(=O)N[C@H](CC(=O)NCC(N)=O)Cc3c[nH]c4ccccc34)CC2)cc1` [Compound 31] are 4% and 857.0.
Regarding `CCc1ccc(C(=O)NCC2(C(=O)N[C@@H](CC(=O)NCC(N)=O)Cc3csc4ccccc34)CC2)cc1` [Compound 32], the “Fnorm (% displ.): FTAD displacement” value was 3% and the “Fnorm (MST screening)” value is reported as 856.7.
The corresponding values for `CCc1ccc(C(=O)NCC2(C(=O)N[C@@H](CC(=O)NCC(N)=O)Cc3ccc(I)cc3)CC2)cc1` [Compound 33] are 18% and 885.6.
The corresponding values for `CCc1ccc(C(=O)NCC2(C(=O)N3Cc4ccccc4C[C@@H]3CC(=O)NCC(N)=O)CC2)cc1` [Compound 35] are 5% and 861.5.
Turning to `CCc1ccc(C(=O)NCC2(C(=O)N[C@@H](CC(=O)NCC(N)=O)Cc3ccc4ccccc4c3)CC2)cc1` [Compound 36], the “Fnorm (% displ.): FTAD displacement” value was determined as 5% and the “Fnorm (MST screening)” value was found to be 861.7.
Consider `CCc1ccc(C(=O)NCC2(C(=O)N[C@@H](CC(=O)NCC(N)=O)C(=O)O)CC2)cc1` [Compound 37], for which the “Fnorm (% displ.): FTAD displacement” value was 4% and the “Fnorm (MST screening)” value was 858.6.
Taken in the same sequence, the figures for `CCc1ccc(C(=O)NCC2(C(=O)NCCC(=O)NCC(N)=O)CC2)cc1` [Compound 38] were 4% and 859.4.
The corresponding values for `CCc1ccc(C(=O)NCC2(C(=O)N[C@@H](CC(=O)N[C@@H](C)C(N)=O)Cc3ccccc3)CC2)cc1` [Compound 39] are 8% and 871.4.
Taken in the same sequence, the figures for `CCc1ccc(C(=O)NCC2(C(=O)N[C@@H](CC(=O)N[C@H](C)C(N)=O)Cc3ccccc3)CC2)cc1` [Compound 40] were 8% and 870.1.
Take `CCc1ccc(C(=O)NCC2(C(=O)N[C@@H](CC(=O)N[C@@H](C(N)=O)[C@@H](C)O)Cc3c[nH]c4ccccc34)CC2)cc1` [Compound 41]: the “Fnorm (% displ.): FTAD displacement” value came out at 6% and the “Fnorm (MST screening)” value came to 865.3.
The corresponding values for `CCc1ccc(C(=O)NCC2(C(=O)N[C@@H](CC(=O)N[C@@H](Cc3ccccc3)C(N)=O)Cc3ccccc3)CC2)cc1` [Compound 42] are 4% and 858.8.
The corresponding values for `CCc1ccc(C(=O)NCC2(C(=O)N[C@@H](CC(=O)NCCC(N)=O)Cc3ccccc3)CC2)cc1` [Compound 43] are 10% and 874.7.
`CCc1ccc(C(=O)N(C)CC2(C(=O)NC(CC(=O)NCC(N)=O)Cc3ccccc3)CC2)cc1` (stereo not drawn) [Compound 44]: the “Fnorm (% displ.): FTAD displacement” value was determined as 7% and the “Fnorm (MST screening)” value is on record as 869.7.
Taken in the same sequence, the figures for `CCc1ccc(C(=O)NCC2(C(=O)N(C)[C@@H](CC(=O)NCC(N)=O)Cc3ccccc3)CC2)cc1` [Compound 45] were 5% and 862.6.
Regarding `CCc1ccc(C(=O)NCC2(C(=O)N[C@@H](CC(=O)N(C)CC(N)=O)Cc3ccccc3)CC2)cc1` [Compound 46], the “Fnorm (% displ.): FTAD displacement” value amounted to 7% and the “Fnorm (MST screening)” value came to 868.4.
